In PMC3633653 (Molecular microbiology, 2013):

Molecular target: T1, EI^Ntr (Escherichia coli, UniProt P37177)
T1 sequence (P37177 1-748): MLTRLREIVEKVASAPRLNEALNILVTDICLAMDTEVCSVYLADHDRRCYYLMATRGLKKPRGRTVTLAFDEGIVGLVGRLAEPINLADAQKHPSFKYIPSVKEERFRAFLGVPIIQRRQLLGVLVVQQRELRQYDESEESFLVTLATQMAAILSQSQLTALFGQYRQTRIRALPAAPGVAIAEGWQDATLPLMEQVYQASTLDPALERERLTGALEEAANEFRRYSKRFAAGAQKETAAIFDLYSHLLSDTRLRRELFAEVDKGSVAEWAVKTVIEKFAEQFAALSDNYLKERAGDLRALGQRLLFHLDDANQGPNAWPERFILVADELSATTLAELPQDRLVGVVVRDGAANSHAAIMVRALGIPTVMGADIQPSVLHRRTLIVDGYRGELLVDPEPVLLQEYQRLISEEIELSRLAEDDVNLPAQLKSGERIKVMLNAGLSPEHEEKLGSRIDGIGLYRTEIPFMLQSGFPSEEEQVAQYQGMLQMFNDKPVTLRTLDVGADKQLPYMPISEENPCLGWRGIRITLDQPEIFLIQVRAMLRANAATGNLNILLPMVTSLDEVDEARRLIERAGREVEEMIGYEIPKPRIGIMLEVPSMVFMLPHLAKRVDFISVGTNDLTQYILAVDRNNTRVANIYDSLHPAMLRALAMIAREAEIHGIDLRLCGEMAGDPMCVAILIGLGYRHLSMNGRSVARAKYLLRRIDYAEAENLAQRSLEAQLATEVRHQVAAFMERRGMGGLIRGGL
Assay: intrinsic tryptophan fluorescence quenching
Format: binding

| Kd | SMILES |
| --- | --- |
| 700 µM | NC(=O)CC[C@H](N)C(=O)O [glutamine] |
| 3300 µM | O=C(O)CCC(=O)C(=O)O [α-ketoglutarate] |
